Experimental data reported in ChEMBL document CHEMBL1201862, “PubChem BioAssay data set” (2004).
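A five-concentration, 48-hour dose response in 96-well plates underlies each endpoint, interpolated linearly between surrounding concentrations. At the GI50, growth is halved.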 Active and inactive are the calls of the source. No stated cut-off is given here; in the data, active = GI50 up to about 1.1 µM and inactive = higher. Square brackets hold non-standard residues; d marks the D form. Peptide text beside a SMILES is read from it. * marks the point of attachment. ξ: configuration not given here. Propanoyl(3-(4-MeO-Ph)) = COc1ccc(CCC(=O)*)cc1; Thr(3ξ) = CC(O)[C@H](N)C(=O)O; dNMeL = CN[C@H](CC(C)C)C(=O)O; ξLac = CC(O)C(=O)O

What was measured:
Assay in all cases: inhibition of tumour cell growth, NCI panel, 48 h
[1] = tested on: BT-549
[2] = tested on: DLD-1
[3] = tested on: SNB-78
[4] = tested on: KM-20L2
[5] = tested on: M19-MEL
[6] = tested on: DMS-114
[7] = tested on: DMS-273
[8] = tested on: RXF 631
[9] = tested on: HOP-18

SMILES | GI50 [1] | GI50 [2] | GI50 [3] | GI50 [5] | also measured
Cc1c2c(n(Cc3ccccn3)c1C)NN=C(C#N)S2(=O)=O | > 100 µM (inactive) |  |  |  | 
CC1=NN(C(=O)c2ccc(Cl)cc2)C(=O)/C1=C/c1cccc(O)c1 |  | > 100 µM (inactive) | > 100 µM (inactive) | > 100 µM (inactive) | GI50 [4]: > 100 µM (inactive); GI50 [6]: > 100 µM (inactive)
CCCCC/C=C\C=C\CCCCCCCCC(=O)OC | > 100 µM (inactive) |  |  |  | 
CCCCc1ccc(N2C(=O)c3cccnc3S2(=O)=O)cc1 | > 100 µM (inactive) |  |  |  | 
O=[N+]([O-])c1cc(Cl)ccc1S(=O)(=O)c1cc(Cl)cc2c1NCCC2 | 56.9 µM (inactive) |  |  |  | 
CSc1ccc2c(cc1=O)[C@@H](NC(=O)c1cc(O)c(O)c(O)c1)CCc1cc(O)c(O)c(O)c1-2 |  | 21.2 µM (inactive) | 31 µM (inactive) | 14.6 µM (inactive) | GI50 [7]: 20.5 µM (inactive); GI50 [8]: 15.5 µM (inactive); GI50 [4]: 68.7 µM (inactive)
CC(=O)NC(CCCNC(=O)OCc1ccccc1)C(=O)NCc1ccccc1 (configuration not stated) |  | > 100 µM (inactive) |  | > 100 µM (inactive) | GI50 [7]: > 100 µM (inactive); GI50 [4]: > 100 µM (inactive); GI50 [6]: > 100 µM (inactive)
O=c1[nH]c2c(C(F)(F)F)c(Cl)c(-c3ccccc3)nc2o1 | 15.7 µM (inactive) |  |  |  | 
C=C1CC2C(=O)N(c3ccccc3)C(=O)C2CC1n1[nH]c(=O)n(Cc2ccccc2)c1=O (configuration not stated) |  | > 100 µM (inactive) | > 100 µM (inactive) | > 100 µM (inactive) | GI50 [7]: > 100 µM (inactive); GI50 [9]: > 100 µM (inactive); GI50 [4]: > 100 µM (inactive)
Cc1cc(/N=C/c2ccc(F)cc2)n(-c2ccccc2)n1 | 85.1 µM (inactive) |  |  |  | 
c1ccc(CSc2nc(N3CCCCC3)c3cn[nH]c3n2)cc1 | 16.5 µM (inactive) |  |  |  | 
CC(=O)NNc1nc(C)c(C(/C=C/c2ccc3c(c2)OCO3)=N/NC(=O)c2ccncc2)s1 | > 100 µM (inactive) |  |  |  | 
CCOC(=O)c1nc2ccccc2nc1Oc1ccc(C#N)cc1 | > 100 µM (inactive) |  |  |  | 
CC(/C=C/C(=O)NO)=C\C(C)C(=O)c1ccc(N(C)C)cc1 (configuration not stated) | 0.424 µM (active) |  |  |  | 
COC(=O)Nc1nc2ccccc2[nH]1 [CARBENDAZIM] | 10.1 µM (inactive) |  |  |  | 
CCC(C)N1CN(c2ccccc2)C2(CCN(CCCSc3ccc(F)cc3)CC2)C1=O (configuration not stated) | 1.66 µM (inactive) |  |  |  | 
COC(=O)[C@@H](NC(=O)[C@@H](CC(C)C)N(C)C(=O)[C@@H]1CCCN1C(=O)C(C)O)C(C)OC(=O)CCc1ccc(OC)cc1 (some centres not stated) (H-[ξLac]P[dNMeL][Thr(3ξ)](Propanoyl(3-(4-MeO-Ph)))-OMe) | > 100 µM (inactive) |  |  |  | 
COc1nc2c(c(=O)n1C)N[C@@H]1[C@@H](O)[C@H](O)CO[C@@H]1N2 | > 100 µM (inactive) |  |  |  | 

SMILES | GI50 [1] | GI50 [2] | GI50 [3] | GI50 [5] | also measured
O=c1[nH]/c(=C/c2ccc(OCc3ccccc3)cn2)c(=O)[nH]/c1=C/c1ccc(Cl)cc1 | 0.344 µM (active) |  |  |  | 
O=C(/C=C/c1cc2ccccc2o1)N1CCN(c2ccccn2)CC1 | > 100 µM (inactive) |  |  |  | 
CCCCCCc1cc2c(C)c(C)c(=O)oc2cc1OCCCOc1cc2oc(=O)c(C)c(C)c2cc1CCCCCC |  | > 100 µM (inactive) | > 100 µM (inactive) | > 100 µM (inactive) | GI50 [7]: > 100 µM (inactive); GI50 [9]: > 100 µM (inactive); GI50 [4]: > 100 µM (inactive); GI50 [6]: > 100 µM (inactive)
CC1(C)CCC(=O)c2c(O)ccc(O)c21 |  |  | > 100 µM (inactive) | > 100 µM (inactive) | GI50 [7]: > 100 µM (inactive); GI50 [4]: 83.4 µM (inactive)
Nc1nc(Cl)cc(NCC2(O)CCC2)n1 | > 100 µM (inactive) |  |  |  | 
Cn1c(=O)n2n(c1=O)C(S(=O)(=O)c1ccccc1)C2 (configuration not stated) | > 100 µM (inactive) |  |  |  | 
O=Cc1c[nH]c2c(=O)[nH]cnc12 |  | > 100 µM (inactive) | > 100 µM (inactive) | > 100 µM (inactive) | GI50 [9]: > 100 µM (inactive); GI50 [6]: > 100 µM (inactive)
CNC(=O)N(CCCC(NC(C)=O)C(=O)NCc1ccccc1)Cc1ccccc1 (configuration not stated) |  | > 100 µM (inactive) | > 100 µM (inactive) | > 100 µM (inactive) | GI50 [7]: > 100 µM (inactive); GI50 [4]: > 100 µM (inactive); GI50 [6]: > 100 µM (inactive)
CC(C)(C)N1C(=O)[N-]/[N+](=C(/C(c2ccccc2)=[N+]2/[N-]C(=O)N(C(C)(C)C)C2=O)c2ccccc2)C1=O | > 100 µM (inactive) |  |  |  | 
O=C1OCCC1C(O)C1c2ccccc2-c2ccccc21 (configuration not stated) |  | > 100 µM (inactive) | > 100 µM (inactive) | > 100 µM (inactive) | GI50 [6]: > 100 µM (inactive)
CN(C)CCCNCc1cccc2ccccc12 | > 100 µM (inactive) |  |  |  | 
Cc1[nH]c(=O)[nH]c(=O)c1N(CCF)CCCl [FLUORODOPAN] | 344 µM (inactive) | 384 µM (inactive) | 322 µM (inactive) |  | GI50 [4]: 359 µM (inactive); GI50 [6]: 193 µM (inactive)
O=C(CNc1cccc([N+](=O)[O-])c1)Nn1c(-c2ccccc2)nc2ccccc2c1=O | 1.87 µM (inactive) |  |  |  | 
COc1cc2nc3n(c(=O)c2cc1OC)CCCCC3 | > 100 µM (inactive) |  |  |  | 
NNC(=O)CC(=O)Nc1ccc(Cl)cc1 | > 100 µM (inactive) |  |  |  | 
CC#CC1/C(=C\C(=O)OC)CCCC1O (configuration not stated) |  | > 100 µM (inactive) | > 100 µM (inactive) | > 100 µM (inactive) | GI50 [7]: > 100 µM (inactive); GI50 [6]: > 100 µM (inactive)
CC(=O)OC[C@@H](COC(=O)/C=C/c1ccc(O)cc1)OC1OC(CO)C(O)C(O)C1O (some centres not stated) |  | > 100 µM (inactive) | > 100 µM (inactive) | > 100 µM (inactive) | GI50 [9]: > 100 µM (inactive); GI50 [8]: > 100 µM (inactive); GI50 [4]: > 100 µM (inactive)
